# Assay results as given in article PMC5228037, “Discovery and Mechanistic Characterization of Selective Inhibitors of H2S-producing Enzyme: 3-Mercaptopyruvate Sulfurtransferase (3MST) Targeting Active-site Cysteine Persulfide” (Scientific Reports, 2017).
# Target: T1, recombinant CBS (Rattus norvegicus, UniProt P32232)
# T1 construct: GST (N, cleaved yes); made in house; host or cells: E. coli DH5α
# T1 sequence (P32232 1-561): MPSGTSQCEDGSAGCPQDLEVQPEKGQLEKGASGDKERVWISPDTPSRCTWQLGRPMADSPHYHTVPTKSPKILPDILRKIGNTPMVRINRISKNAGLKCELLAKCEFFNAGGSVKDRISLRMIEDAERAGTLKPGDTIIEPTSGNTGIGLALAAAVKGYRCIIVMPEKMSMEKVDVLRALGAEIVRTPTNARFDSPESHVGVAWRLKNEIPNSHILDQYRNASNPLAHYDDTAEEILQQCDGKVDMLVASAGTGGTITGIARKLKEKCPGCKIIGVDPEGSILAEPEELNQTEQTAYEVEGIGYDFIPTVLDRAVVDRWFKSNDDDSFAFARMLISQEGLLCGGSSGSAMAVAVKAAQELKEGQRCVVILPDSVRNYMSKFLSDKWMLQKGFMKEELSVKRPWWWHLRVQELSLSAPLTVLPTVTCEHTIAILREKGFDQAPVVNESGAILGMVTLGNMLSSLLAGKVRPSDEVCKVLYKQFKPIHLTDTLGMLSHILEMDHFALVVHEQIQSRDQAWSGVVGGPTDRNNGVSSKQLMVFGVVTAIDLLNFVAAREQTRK
# Experiment: Inhibitory activity towards purified CBS by gas chromatography
# Format: biochemical
# Settings: 100 μM compound, 10 mM L-cysteine and DL-homocysteine
# Protocol: Figure 2 Selectivity assessment of hit compounds for 3MST over other H2S/polysulfides-producing enzymes and rhodanese. (a) 3MST-Inhibitory activity of hit compounds at 10 and 100 μM in cell lysate of 3MST-expressing HEK293 cells. 100 μM 3MP and 100 μM DTT were added to the solution containing 0.1% DMSO as a cosolvent, and the mixture was incubated at 37 °C for 15 min. H2S production was measured by gas chromatography. All data are presented as the mean ± S.D. (100 μM: n = 3 or 4; 10 μM: n = 3). (b) Selectivity assessment of hit compounds at 100 μM towards CBS and CSE. Only DMSO was added to the control sample instead of DMSO solution containing hit compounds. H2S production was monitored by gas chromatography. All data are presented as the mean (n = 3). (c) Detection method for rhodanese activity (Sörbo method). (d) Selectivity assessment of hit compounds towards rhodanese. The results are mean ± S.D. (n = 4, three times). These values were determined based upon the absorbance of [Fe(SCN)3] at 460 nm (Sӧrbo method). Bovine rhodanese 1.3–1.7 units/mL, substrate: 52 mM Na2S2O3, 50 mM KCN, 0.004% (w/v) BSA, 100 μM compound and DMSO 1% (v/v) in 88 mM potassium phosphate buffer (pH 8.6) at room temperature for 5 min incubation. (e) Fluorescence confocal microscopic images of live COS7 cells transfected with 3MST or an empty vector[9] as a control. Cells were incubated with 50 μM SSP4, a fluorescent probe for sulfane sulfur, and 10 μM, 1 μM, 0.5 μM, 0.1 or 0 μM compound 3 in DMEM containing 0.6% DMSO for 30 min, then washed with HBSS and placed in fresh DMEM with 0‒10 μM compound 3 (Pre). 500 μM 3MP was added to the cells and the cells were incubated for 10 min (10 min). (f) Graphic representation of (e). F/F0 was calculated by dividing the fluorescence intensity of cells after addition of 500 μM 3MP (10 min) by that of cells before addition of 500 μM 3MP (Pre), then the mean F/F0 was determined from 5 cells. All data represent the mean ± standard error of the mean (SEM) of three experiments.
# GST-tagged rat CSE-HA or rat CBS-HA was expressed in E. coli DH5α as follows. E. coli DH5α transformed with the pGEX-rCSE-HA or pGEX-rCBS-HA plasmid was cultured overnight in LB medium containing 100 μg/mL ampicillin (and 0.3 mM 5-aminolevulinic acid, for CBS) at 37 °C, and the 120 mL culture was inoculated into 2400 mL of LB medium. Further growth of the culture was performed at 37 °C with vigorous shaking until OD600 reached 0.8. IPTG was added to the E. coli DH5α culture at a final concentration of 0.1 mM and incubation was continued at 18 °C. […]
structure (smiles),measurement,setting,value
NC(=O)c1ccsc1NC(=O)CSc1nc2ccccc2c(=O)[nH]1 [compound 1],inhibition at 100 µM,read-out: Inhibition of recombinant CBS enzymatic activity (H2S production),~25%
Cc1sc2nc(SCC(=O)c3ccc(O)cc3O)[nH]c(=O)c2c1C [compound 2],Inhibition of recombinant CBS enzymatic activity (H2S production),,enhanced H2S production
Cc1cc(=O)[nH]c(SCC(=O)c2cccc3ccccc23)n1 [compound 3],Inhibition of recombinant CBS enzymatic activity (H2S production),,almost inactive
O=C(O)c1cccc(NS(=O)(=O)c2ccccc2)c1 [compound 5],Inhibition of recombinant CBS enzymatic activity (H2S production),,enhancement of H2S production
